One compound from publication PMC4352019, “Bioactivity-Guided Fractionation of an Antidiarrheal Chinese Herb Rhodiola kirilowii (Regel) Maxim Reveals (-)–Epicatechin-3-Gallate and (-)–Epigallocatechin-3-Gallate as Inhibitors of Cystic Fibrosis Transmembrane Conductance Regulator” (PLoS ONE, 2015) can be followed below.

Molecules are shown by their SMILES.

For this assay, the target named is T1, Cystic fibrosis transmembrane conductance regulator (CFTR) (Homo sapiens, UniProt P13569).
T1 construct: human wild-type CFTR stably expressed in FRT cells
T1 sequence (P13569 whole entry): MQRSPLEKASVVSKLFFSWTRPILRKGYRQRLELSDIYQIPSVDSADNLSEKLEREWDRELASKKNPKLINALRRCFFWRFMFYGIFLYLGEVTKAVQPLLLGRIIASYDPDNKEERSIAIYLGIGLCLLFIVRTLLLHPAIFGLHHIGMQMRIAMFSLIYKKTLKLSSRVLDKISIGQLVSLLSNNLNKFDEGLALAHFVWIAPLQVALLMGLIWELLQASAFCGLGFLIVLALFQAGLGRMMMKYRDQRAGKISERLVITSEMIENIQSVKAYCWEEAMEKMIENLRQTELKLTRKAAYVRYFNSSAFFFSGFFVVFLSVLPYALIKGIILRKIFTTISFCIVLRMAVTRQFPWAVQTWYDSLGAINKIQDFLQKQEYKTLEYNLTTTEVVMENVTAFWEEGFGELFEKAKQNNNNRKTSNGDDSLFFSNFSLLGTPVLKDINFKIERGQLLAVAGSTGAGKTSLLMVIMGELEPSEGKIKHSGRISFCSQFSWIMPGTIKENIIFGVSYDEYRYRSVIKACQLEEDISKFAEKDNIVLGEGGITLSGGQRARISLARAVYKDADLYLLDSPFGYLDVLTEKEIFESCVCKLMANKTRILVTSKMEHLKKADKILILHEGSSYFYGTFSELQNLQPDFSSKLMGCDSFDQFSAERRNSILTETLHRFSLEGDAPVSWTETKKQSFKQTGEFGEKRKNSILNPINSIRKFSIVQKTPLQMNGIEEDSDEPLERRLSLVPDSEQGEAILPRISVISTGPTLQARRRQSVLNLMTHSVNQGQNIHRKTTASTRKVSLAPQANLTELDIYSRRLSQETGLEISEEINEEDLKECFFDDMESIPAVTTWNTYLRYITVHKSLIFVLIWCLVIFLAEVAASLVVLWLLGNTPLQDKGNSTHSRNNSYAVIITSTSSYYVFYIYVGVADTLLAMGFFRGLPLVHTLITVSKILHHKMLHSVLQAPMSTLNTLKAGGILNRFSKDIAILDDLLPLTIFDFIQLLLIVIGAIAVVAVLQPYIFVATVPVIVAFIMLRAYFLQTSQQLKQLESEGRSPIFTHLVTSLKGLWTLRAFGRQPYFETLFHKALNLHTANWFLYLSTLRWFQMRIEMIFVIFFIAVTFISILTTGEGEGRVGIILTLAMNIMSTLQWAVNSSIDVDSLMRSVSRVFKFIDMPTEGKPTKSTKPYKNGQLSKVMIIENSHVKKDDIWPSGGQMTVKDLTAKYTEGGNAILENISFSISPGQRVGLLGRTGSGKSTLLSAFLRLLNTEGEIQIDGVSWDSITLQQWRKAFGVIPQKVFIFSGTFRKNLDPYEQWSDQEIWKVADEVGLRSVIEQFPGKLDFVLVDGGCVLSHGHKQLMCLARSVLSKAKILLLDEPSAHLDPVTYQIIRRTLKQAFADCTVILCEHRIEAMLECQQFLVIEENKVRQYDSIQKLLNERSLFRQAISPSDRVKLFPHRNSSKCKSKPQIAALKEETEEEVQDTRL
Briefly: YFP-H148Q iodide influx fluorescence assay in CFTR-expressing FRT cells; supported by short-circuit current in rat colonic mucosa. It is filed as cell-based.

Compound `O=C(O[C@@H]1Cc2c(O)cc(O)cc2O[C@@H]1c1cc(O)c(O)c(O)c1)c1cc(O)c(O)c(O)c1` [C2, (-)–epigallocatechin-3-gallate] had an IC50 of approximately 100 µM.
